Data from patent US6372690B1 (McGill University, priority 1998, dated 2002).
Entries after “also recorded” stand apart in the source; their conditions may differ.

Assays:
ragweed [1] = test: Example 3: assay with other non-ionic surfactants, ragweed plots in waste area situation; assay type: in vivo
Description: This experiment was conducted to test another solution containing another non-ionic surfactant. The experiment was conducted on plots behind a beef barn complex, on ragweed of 6 to 10 inches in height, fully flowered, in a very hard and gravely soil, such as in a waste area situation. The experiment was conducted as a completely randomized design (CRD) with three replicates.
Each plot has a surface of one (1) m^2. The sprayer used was a small compressed air sprayer with 210 kPa pressure and a T-Jet™ 8002 nozzle. The plots were sprayed Sep. 3, 1996 at 10:00 a.m. under a bright sunshine and a temperature of 28° C. In all instances, the efficacy of the solution was evaluated 20-30 minutes, 2-4 hrs, 16-24 hrs, and 2-5 days after spraying. The efficacy of the solution was determined based on level of plant deterioration.
In this experiment, 14 different treatments were applied to the different plots (with three replicates/treatment).
Once it had been determined that a surfactant could possibly increase efficacy of the NaCl at the same time as reducing the spray volume needed, another non-ionic surfactant, namely Citowett™, was introduced into the trials. All surfactants were applied at the rates usually recommended in the Ontario Guide to Chemical Weed Control (OMAFRA, 1997).

ragweed [2] = test: General conclusions on ragweed control from the experiments; assay type: in vivo
all types of vegetation = conditions: Frear, Chemistry of Pesticides 3rd ed. p. 401, 1955; cited from earlier work
ragweed [3] = test: Spraying of ragweed plants as described in the description and FIGS. 1-3; assay type: in vivo; conditions: 12% NaCl solution
ragweed [4] = test: Example 2: determination of an adequate volume sprayed, ragweed plots sprayed at 1000 l/ha; assay type: in vivo
Description: This experiment was conducted to determine if increasing the spray volume to the point where the plants were completely covered to the run-off stage would improve efficacy.
This experiment was conducted on plots within a fencerow of an agricultural field where ragweed plants had attained 12 to 20 inches in height, and were in full flower. The experiment was conducted as a completely randomized design (CRD) with three replicates.
Each plot has a surface of one (1) m^2. The sprayer used was a Hardi™ pack sprayer with Hardi™ nozzle and 200-220 kPa of pressure. The plots were sprayed Aug. 29, 1996 at 13:30 under a bright sunshine and a temperature of 29° C. The spray volume used was 1000 l/ha or 100 ml/m^2 plot.
In all instances, the efficacy of the solution was evaluated 30 minutes, 2-4 hrs, 16-24 hrs, and 2-5 days after spraying. The efficacy of the solution was determined based on level of plant deterioration.
In this experiment, 6 different treatments (having three replicates each) were subjected to the different plots.

ragweed [5] = test: Example 5: optimization of salt concentration with or without surfactants, cut ragweed in roadside situation; assay type: in vivo
Description: This experiment was conducted on plots having ragweed 4 to 6 inches tall, in flower, and which had been cut at least once, in a roadside situation. The experiment was conducted as a randomized complete block design (RCBD) with three replicates.
(§1) Each plot has a surface of four (4) m^2. The sprayer used was a small compressed air sprayer with 210 kPa pressure and T-Jet™ 8002 nozzle. The plots were sprayed Sep. 6, 1996 at 13:30, under a bright sunshine and a temperature of 29° C. In all instances, the efficacy of the solution was evaluated 30 minutes, 2-4 hrs, 16-24 hrs, and 2-5 days after spraying. The efficacy of the solution was determined based on level of plant deterioration.
(§2) In this experiment, 8 different treatments were applied to the different plots (with three replicates/treatment).
Only the 8% and 12% rates were considered in this experiment because it had been observed that there was no efficacy or economic benefit to using the 16% or 20% rates of NaCl. Both NaCl concentrations were applied alone or with each of the three surfactants.

broad-leaved plantain = test: Selective control of broad-leaved plantain in turf (FIG. 4); assay type: in vivo; conditions: 12% NaCl solution; 24 hours following the application
ragweed [6] = test: Example 4: concentration of salt with or without surfactants, tall ragweed in cultivated field; assay type: in vivo; conditions: tall ragweed (40-60 inches)
Description: This experiment was conducted on plot of tall ragweed (40-60 inches), fully flowered, in a cultivated field situation. The experiment was conducted as a completely randomized design (CRD) with three replicates.
as §1, with “Hardi™ pack” for “small compressed air”, “200-220” for “210”, “09:00 a.m.” for “13:30,”, “26°” for “29°”
as §2

Compound	efficacy compared with the NaCl solutions (ragweed [1]; 12% KNO3)	suitability as alternative to NaCl (ragweed [2]; KNO3 at the 12% rate)	herbicidal effect and selectivity (all types of vegetation)	effect on ragweed plants (FIGS. 2 and 3) (ragweed [3]; 24 hours following spraying)	effect on ragweed plant (FIG. 1) (ragweed [3]; within 6 hours of applying)	efficacy compared with the 12% solution (ragweed [1]; 8% NaCl alone)	overall damage to the ragweed compared with the 12% solution (ragweed [1]; 16% NaCl)	overall damage to the ragweed compared with the 12% solution (ragweed [1]; 20% NaCl)	activity at damaging the ragweed (ragweed [4]; 8% NaCl)	overall efficacy (ragweed [4]; 12% NaCl)	difference in effect between 12% and 16% solution (ragweed [4]; 16% NaCl versus 12% NaCl, any time except 30 minutes after application)	speed of wilting (ragweed [4]; 16% NaCl, 30 minutes after application)	reaction of ragweed to the sprays (ragweed [4]; NaCl at all three concentrations (8, 12, 16% W/V), 30 minutes after spraying)	control of ragweed (ragweed [5]; 8% NaCl alone)	effect 30 minutes after application (ragweed [5]; 12% NaCl alone, 30 minutes)	effect 2 days after spraying (ragweed [5]; 12% NaCl alone, 2 days)	control of broad-leaved plantain in turf (FIG. 4) (broad-leaved plantain)	ragweed control (general conclusion) (ragweed [2]; salt solutions, especially NaCl solutions)	control (ragweed [6]; 8% NaCl)	efficiency compared with higher concentrations (ragweed [6]; 12% NaCl without surfactant)
O=[N+]([O-])[O-].[K+] [KNO3, potassium nitrate, reference compound]	not as effective as any of the NaCl solutions	not a viable alternative to NaCl																		
[Cl-].[Na+] [NaCl, sodium chloride]			will kill all types of vegetation, without any selection	drooping of ragweed staminate flowers and desiccation of leaves; also recorded: desiccated	curling and wilting	not as effective as the 12% solution	did not visibly improve overall damage to the ragweed	did not visibly improve overall damage to the ragweed	there was activity but it did not seem to be as effective as the 12% concentration	sufficient	little difference	appeared to have wilted more quickly than those treated with 12%	the inflorescences were drooping	inferior control of ragweed compared with the 12% solution	drooping	complete necrosis	selective control	effective at ragweed control	slightly lower	as efficient as 16% or 20%
